This assay deals with T1, ALK2 (Homo sapiens, UniProt Q04771).
T1 construct: purchased ThermoFisher Scientific (Life Technologies)
T1 sequence (Q04771 21-509): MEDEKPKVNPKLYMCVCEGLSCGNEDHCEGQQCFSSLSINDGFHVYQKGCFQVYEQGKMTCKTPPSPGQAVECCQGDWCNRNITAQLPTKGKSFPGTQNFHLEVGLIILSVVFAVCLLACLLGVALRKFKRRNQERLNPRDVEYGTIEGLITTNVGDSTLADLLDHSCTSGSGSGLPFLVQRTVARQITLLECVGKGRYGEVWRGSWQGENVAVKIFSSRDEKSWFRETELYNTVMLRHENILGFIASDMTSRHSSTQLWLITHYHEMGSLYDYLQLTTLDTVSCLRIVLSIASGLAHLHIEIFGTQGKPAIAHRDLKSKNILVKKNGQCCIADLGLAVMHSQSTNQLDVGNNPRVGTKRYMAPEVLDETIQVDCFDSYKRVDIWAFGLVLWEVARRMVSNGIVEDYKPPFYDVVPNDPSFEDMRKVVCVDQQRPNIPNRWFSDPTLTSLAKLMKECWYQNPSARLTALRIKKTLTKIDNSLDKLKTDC
The assay can be described thus: LanthaScreen Eu Kinase Binding Assay, ALK2 inhibition. As to conditions: 1 micromolar concentration. How it is done: Biochemical assays to measure the inhibitory effects of the compounds were performed by ThermoFisher Scientific (Life Technologies). ALK2 inhibition was tested using LanthaScreen™ Eu Kinase Binding Assay screening protocol.

A value given as a limit tells only on which side of the number the result lay.

The inhibition is the share of the control response that was lost under treatment. High values mean a strong effect, low ones a weak effect. Consider `C=C(C)c1nc(Nc2cn(-c3cc(OC)c(OC)c(OC)c3)cn2)c2scc(C)c2n1` [Compound 92c, 7-methyl-2-(prop-1-en-2-yl)-N-(1-(3,4,5-trimethoxyphenyl)-1H-imidazol-4-yl)thieno[3,2-d]pyrimidin-4-amine], for which the inhibition at 1 µM was greater than 50%.

In turn, `COc1cc(-n2cnc(Nc3nc(C(C)C)nc4c3ncn4C(C)C)c2)cc(OC)c1OC` [Compound 94a, 2,9-diisopropyl-N-(1-(3,4,5-trimethoxyphenyl)-1H-imidazol-4-yl)-9H-purin-6-amine] displayed an inhibition at 1 µM greater than 50%.

Take `COc1cc(-n2cnc(Nc3nc(C=C(C)C)nc4c3cnn4C(C)C)c2)cc(OC)c1OC` [Compound 5b, 1-isopropyl-6-(2-methylprop-1-en-1-yl)-N-(1-(3,4,5-trimethoxyphenyl)-1H-imidazol-4-yl)-1H-pyrazolo[3,4-d]pyrimidin-4-amine]: the inhibition at 1 µM was greater than 50%.

`C=C(C)c1nc(Nc2cn(-c3cc(OC)c(OC)c(OC)c3)cn2)nc2sccc12` [Compound 90b, 4-(prop-1-en-2-yl)-N-(1-(3,4,5-trimethoxyphenyl)-1H-imidazol-4-yl)thieno[2,3-d]pyrimidin-2-amine] came in with an inhibition at 1 µM greater than 50%.

Consider `COc1cc(-n2cnc(Nc3nc(CC4CC4)nc4c3cnn4C(C)(C)C)c2)cc(OC)c1OC` [Compound 119e, 1-(tert-butyl)-6-(cyclopropylmethyl)-N-(1-(3,4,5-trimethoxyphenyl)-1H-imidazol-4-yl)-1H-pyrazolo[3,4-d]pyrimidin-4-amine], for which the inhibition at 1 µM was greater than 50%.

`COc1cc(-n2cnc(Nc3nc(C(C)C)nc4c(C)csc34)c2)cc(OC)c1OC` [Compound 96a, 2-isopropyl-7-methyl-N-(1-(3,4,5-trimethoxyphenyl)-1H-imidazol-4-yl)thieno[3,2-d]pyrimidin-4-amine] registered an inhibition at 1 µM greater than 50%.

As to `C=C(C)c1nc2c(c(Nc3cn(-c4cc(OC)c(OC)c(OC)c4)cn3)n1)CCC2` [Compound 60c, 2-(prop-1-en-2-yl)-N-(1-(3,4,5-trimethoxyphenyl)-1H-imidazol-4-yl)-6,7-dihydro-5H-cyclopenta[d]pyrimidin-4-amine], the inhibition at 1 µM is greater than 50%.

In turn, `C=C(C)c1nc(Nc2cn(-c3cc(OC)c(OC)c(OC)c3)cn2)c2cc(F)ccc2n1` [Compound 95c, 6-fluoro-2-(prop-1-en-2-yl)-N-(1-(3,4,5-trimethoxyphenyl)-1H-imidazol-4-yl)quinazolin-4-amine] returned an inhibition at 1 µM greater than 50%.

`COc1cc(-n2cnc(Nc3nc(CC4CC4)nc4c3cnn4C(C)C)c2)cc(OC)c1OC` [Compound 34d, 6-(cyclopropylmethyl)-1-isopropyl-N-(1-(3,4,5-trimethoxyphenyl)-1H-imidazol-4-yl)-1H-pyrazolo[3,4-d]pyrimidin-4-amine] gave an inhibition at 1 µM greater than 50%.

`C=C(C)c1nc(Nc2cn(-c3cc(OC)c(OC)c(OC)c3)cn2)c2sccc2n1` [Compound 51c, 2-(prop-1-en-2-yl)-N-(1-(3,4,5-trimethoxyphenyl)-1H-imidazol-4-yl)thieno[3,2-d]pyrimidin-4-amine] had an inhibition at 1 µM greater than 50%.

In turn, `COc1cc(-n2cnc(Nc3nc(C4=CN(C(=O)OC(C)(C)C)CC4)nc4c3cnn4C(C)C)c2)cc(OC)c1OC` [Compound 40b, tert-butyl 4-(1-isopropyl-4-((1-(3,4,5-trimethoxyphenyl)-1H-imidazol-4-yl)amino)-1H-pyrazolo[3,4-d]pyrimidin-6-yl)-2,3-dihydro-1H-pyrrole-1-carboxylate] gave an inhibition at 1 µM greater than 50%.

`C=C(C)c1nc(Nc2cn(-c3cc(OC)c(OC)c(OC)c3)cn2)nc2cc(OC)c(OC)cc12` [Compound 68b, 6,7-dimethoxy-4-(prop-1-en-2-yl)-N-(1-(3,4,5-trimethoxyphenyl)-1H-imidazol-4-yl)quinazolin-2-amine] showed an inhibition at 1 µM greater than 50%.

`COc1cc(-n2cnc(Nc3nc(CC(C)C)nc4c3CCC4)c2)cc(OC)c1OC` [Compound 127b, 2-isobutyl-N-(1-(3,4,5-trimethoxyphenyl)-1H-imidazol-4-yl)-6,7-dihydro-5H-cyclopenta[d]pyrimidin-4-amine] returned an inhibition at 1 µM greater than 50%.

The record behind these values is patent US20240270750A1, “IMIDAZOLE-CONTAINING INHIBITORS OF ALK2 KINASE” (BioCryst Pharmaceuticals, Inc., priority 2021, published 2024).
